{"source": "patent US10172905B1", "about": "“Treatment of protein degradation disorders” (President and Fellows of Harvard College, priority 2005, dated 2019)", "key": {"MM.1S and RPMI cells": {"system": "MM.1S and RPMI cells", "test": "Synergy with Velcade/Bortezomib in myeloma cell lines", "format": "cell-based"}, "[1]": {"system": "tubulin acetylation versus lysine acetylation", "test": "Immunofluorescence assay for acetylated tubulin versus acetylated lysine", "format": "cell-based", "conditions": "cells not given", "excerpt": "The present invention provides an immunofluorescence-based assay for identifying test agents with HDAC and/or TDAC inhibitory activity. The inventive assay is based on the use of specific antibodies for acetylated tubulin and acetylated lysine (i.e., a marker for acetylated histones). […] As described above, any type of agent, including small molecules, polymers, biomolecules, proteins, peptides, polynucleotides, etc., may be screened using the inventive assay. In certain embodiments, small molecules are screened. In certain particular embodiments, the small molecules are tubacin-like or are tubacin derivatives. In certain embodiments, the small molecules are compounds of the present invention. The test agents may also be small molecules purchased, prepared through traditional synthetic techniques, prepared through combinatorial chemistry techniques, or obtained from historical chemical collections. In certain embodiments, the test agents are biomolecules. In other embodiments, the test agents are proteins or peptides. In yet other embodiments, the test agents are polynucleotides. In certain embodiments, the test agents are polymers.\nThe assay involves contacting cells with a specific concentration of the test agent under specific conditions. […] There particular parameters may be determined by the operator or scientist conducting the assay as would be appreciated by one of skill in this art. After a determined time of incubation with the test compound, the cells are treated with a first primary antibody directed against acetylated tubulin and a second primary antibody directed against acetylated lysine. […] The signal from each of the secondary antibodies is measured and optionally quantitated to determine the amount of TDAC and HDAC inhibition under the specified conditions with the test agent. Optionally, the extent of inhibition is determined relative to a control in which no test agent was added. In certain embodiments, the secondary antibody is left out and the primary antibodies are uniquely labeled for identification and optionally quantification. […]"}, "HDAC6 [2]": {"biological_target": "T1, HDAC6 (Homo sapiens, UniProt Q9UBN7)", "T1 sequence (Q9UBN7 1-1215)": "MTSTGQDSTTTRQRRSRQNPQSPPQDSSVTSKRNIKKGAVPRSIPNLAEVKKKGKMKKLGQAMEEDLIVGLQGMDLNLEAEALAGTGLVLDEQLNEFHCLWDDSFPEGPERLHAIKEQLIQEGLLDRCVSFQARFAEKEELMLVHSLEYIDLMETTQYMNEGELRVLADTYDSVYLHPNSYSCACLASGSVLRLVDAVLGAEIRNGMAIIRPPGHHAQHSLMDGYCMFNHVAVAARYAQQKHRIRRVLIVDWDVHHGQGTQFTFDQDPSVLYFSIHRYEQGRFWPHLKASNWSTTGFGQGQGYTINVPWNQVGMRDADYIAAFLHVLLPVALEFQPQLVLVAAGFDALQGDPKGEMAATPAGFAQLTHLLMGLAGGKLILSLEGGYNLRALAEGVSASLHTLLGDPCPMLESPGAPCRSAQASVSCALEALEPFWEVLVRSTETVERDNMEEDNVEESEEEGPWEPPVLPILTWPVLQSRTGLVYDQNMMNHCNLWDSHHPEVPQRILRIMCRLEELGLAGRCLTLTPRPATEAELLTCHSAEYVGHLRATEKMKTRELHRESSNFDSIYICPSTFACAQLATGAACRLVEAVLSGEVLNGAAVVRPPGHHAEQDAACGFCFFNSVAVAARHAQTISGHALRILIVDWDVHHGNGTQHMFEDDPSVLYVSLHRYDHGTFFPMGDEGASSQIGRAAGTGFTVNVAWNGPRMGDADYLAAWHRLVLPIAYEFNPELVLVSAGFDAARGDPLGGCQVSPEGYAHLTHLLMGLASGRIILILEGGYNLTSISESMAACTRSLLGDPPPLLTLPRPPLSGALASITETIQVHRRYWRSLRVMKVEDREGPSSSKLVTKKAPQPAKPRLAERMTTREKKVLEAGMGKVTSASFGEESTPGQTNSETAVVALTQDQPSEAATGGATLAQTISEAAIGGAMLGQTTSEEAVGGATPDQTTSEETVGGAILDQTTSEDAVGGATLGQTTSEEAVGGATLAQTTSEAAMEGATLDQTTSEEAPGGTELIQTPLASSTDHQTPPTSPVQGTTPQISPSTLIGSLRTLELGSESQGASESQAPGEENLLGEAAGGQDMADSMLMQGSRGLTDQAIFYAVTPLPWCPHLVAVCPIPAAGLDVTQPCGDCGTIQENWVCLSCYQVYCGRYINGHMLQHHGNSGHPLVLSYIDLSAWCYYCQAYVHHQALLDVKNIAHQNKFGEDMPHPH", "conditions": "stated property of control compound; cited from earlier work"}, "MM.1S cells [3]": {"system": "MM.1S cells", "test": "Cell cycle profile by flow cytometry (PI staining)", "format": "cell-based, human", "conditions": "bortezomib 5 nM alone, 24 h; increased from 14.2%", "method": "[…] Cells were then stained with propidium iodine (PI, Sigma) (5 μg/ml) and cell cycle profile was determined using program M software on an Epics flow cytometer (Coulter Immunology, Hialeah, Fla.) (44)."}, "[4]": {"system": "JNK phosphorylation and caspase/PARP cleavage", "test": "Western blotting for p21Cip1, p-JNK, caspases and PARP", "format": "cell-based, human", "conditions": "MM.1S cells, tubacin 5 μM and/or bortezomib 5 nM, 24 h", "method": "(§1) MM cells were cultured with Velcade and/or Tubacin; harvested; washed; and lysed using lysis buffer: 50 mM Tris-HCl (pH 7.4), 150 mM NaCl, 1% NP-40, 5 mM EDTA, 5 mM NaF, 2 mM Na3VO4, 1 mM PMSF, 5 μg/ml leupeptine, and 5 μg/ml aprotinin. Cell lysates were subjected to SDS-PAGE, transferred to PVDF membrane (Bio-Rad Laboratories, Hercules, Calif.), and immunoblotted with Abs against specific proteins.\n(§2) Cells cultured with tubacin and/or bortezomib were harvested; washed, and lysed using lysis buffer: 50 mM Tris-HCl (pH 7.4), 150 mM NaCl, 1% NP-40, 5 mM EDTA, 5 mM NaF, 1 mM Na3VO4, 1 mM PMSF, 5 μg/ml leupeptine, and 5 μg/ml aprotinin. Whole cell lysates were subjected to SDS-PAGE, transferred to nitrocellulose membrane (Bio-Rad Laboratories, Hercules, Calif.), and immunoblotted with specific Abs (31). Western blotting was done using anti-HDAC6, acetylated lysine, acetylated histone H3, acetylated histone H4, ubiquitin (Ub), phospho-SAPK (JNK), caspase-8 caspase-9, caspase-3, and PARP Abs (Cell Signaling, Beverly, Mass.); with anti-α-tubulin Ab (Santa Cruz Biotechnology, Santa Cruz, Calif.); as well as with anti-dynein Ab (Sigma, Saint Louis, Mo.). For immunoprecipitation, whole cell lysates were incubated with anti-Ub or dynein Abs overnight at 4° C., and then incubated with protein A/G PLUS-Agarose (Santa Cruz Biotechnology) for 2 h at 4° C., as in our prior study (31). Immunoprecipitates were then subjected to Western blotting for detection of HDAC6 and dynein."}, "MM.1S and RPMI8226 cells": {"system": "MM.1S and RPMI8226 cells", "test": "[3H]-thymidine uptake of MM cells adherent to BMSCs", "format": "cell-based, human", "conditions": "MM cells adherent to BMSCs, 24 h", "method": "[…] DNA synthesis was measured as described above.\nAfter treatment, DNA synthesis was measured by [^3H]-thymidine (Perkin Elmer, Boston Mass.) uptake, as previously described (44). All experiments were performed in quadruplicate."}, "[5]": {"system": "MM.1S cells and RPMI cells", "test": "Inhibition of protein catabolism in myeloma cells", "format": "cell-based", "conditions": "FIG. 18"}, "RPMI8226 cells": {"system": "RPMI8226 cells", "conditions": "24 h", "quoted_text": "The inhibitory effect of bortezomib and/or tubacin on MM cell growth was assessed by measuring 3-(4,5-dimethylthiazol-2-yl)-2,5-diphenyl tetrazolium bromide (MTT) dye absorbance, as described previously (33). Cells from 48 h cultures were pulsed with 10 μl of 5 mg/ml MTT to each well for the last 4 h of 48 h cultures, followed by 100 μl isopropanol containing 0.04N HCl. Absorbance was measured at 570 nm using a spectrophotometer (Molecular Devices Corp., Sunnyvale Calif.). All experiments were performed in quadruplicate."}, "[6]": {"system": "patients with refractory relapsed MM", "conditions": "202 patients; cited from earlier work"}, "MM.1S cells [7]": {"system": "MM.1S cells", "test": "MTT assay with niltubacin or HDAC6 siRNA, with or without bortezomib", "format": "cell-based, human", "conditions": "niltubacin 2.5 and 5 μM, 5 nM bortezomib", "method": "The inhibitory effect of bortezomib and/or tubacin on MM cell growth was assessed by measuring 3-(4,5-dimethylthiazol-2-yl)-2,5-diphenyl tetrazolium bromide (MTT) dye absorbance, as described previously (33). […] All experiments were performed in quadruplicate.\nMM.1S cells were transiently transfected with HDAC6 siRNA (Dharmacon Inc., Lafayette, Colo.) using “Cell Line Nucleofecto™ Kit V,” according to manufacturer's (Amaxa Biosystems, Gaithersburg, Md.) instructions (33). Following transfection, MM.1S cells were subjected to Western blotting and MTT assay, in the presence or absence of bortezomib."}, "HDAC6 [8]": {"biological_target": "T1, HDAC6", "test": "Western blotting with anti-acetylated lysine / HDAC6 Abs", "format": "cell-based", "parameters": "MM.1S, U266, INA-6, RPMI8226, and RPMI-LR5 MM cell lines constitutively express HDAC6; endogenous in cells; host or cells: MM.1S, RPMI8226 and other MM cell lines; MM patient BMPCs/PBMCs", "conditions": "niltubacin 2.5 and 5 μM, 24 h, MM.1S cells", "method": "as §1, §2"}}, "note": "Read-outs that look alike come from different tables or passages of the source. Non-standard residues stand in square brackets, D forms with d. Residues, ends and D or L forms follow the SMILES beside them. Aoe = N[C@@H](CCCCCC(=O)[C@@H]1CO1)C(=O)O"}
{"smiles": "O=C(CCCCCCC(=O)Nc1ccc(C2OC(CSc3nc(-c4ccccc4)c(-c4ccccc4)o3)CC(c3ccccc3)O2)cc1)NO", "note": "(centres unmarked) [DHM-Tubacin, des(hydromethyl)-Tubacin]", "values": [{"measurement": "synergy with Velcade", "setting": "MM.1S and RPMI cells; MM.1S and RPMI cells", "result": "synergy"}, {"measurement": "specificity for tubulin acetylation versus lysine acetylation", "setting": "[1]", "result": "specificity"}]}
{"smiles": "Cc1[nH]c2ccccc2c1CCNCc1ccc(/C=C/C(=O)NO)cc1", "note": "[LBH589, reference compound]", "values": [{"measurement": "toxicity and synergy with Bortezomib", "setting": "MM.1S and RPMI cells; MM.1S cells", "result": "toxicity and synergy"}, {"measurement": "toxicity and synergy with Bortezomib", "setting": "MM.1S and RPMI cells; RPMI-8226 cells", "result": "toxicity and synergy"}]}
{"smiles": "CC(/C=C/C(=O)NO)=C\\[C@@H](C)C(=O)c1ccc(N(C)C)cc1", "note": "[Trichostatin]", "values": [{"measurement": "inhibition of HDAC6", "setting": "HDAC6 [2]", "result": "potent inhibitor of both HDAC6 domains"}]}
{"smiles": "CC(C)C[C@H](NC(=O)[C@H](Cc1ccccc1)NC(=O)c1cnccn1)B(O)O", "note": "[bortezomib]", "values": [{"measurement": "G2M phase MM.1S cells", "setting": "MM.1S cells [3]", "result": 39.5, "unit": "%"}, {"measurement": "phosphorylation of JNK and caspase/PARP cleavage", "setting": "[4]", "result": "induces only modest phosphorylation of JNK as well as caspase-9, -8, -3 and PARP cleavage"}, {"measurement": "BMSC-induced [3H]-thymidine uptake / MM cell growth with BMSCs, single agent", "setting": "MM.1S and RPMI8226 cells", "result": "inhibits BMSC-induced [^3H]-thymidine uptake in a dose-dependent fashion"}, {"measurement": "inhibition of protein catabolism", "setting": "[5]", "result": "potent inhibitors of protein catabolism"}, {"measurement": "RPMI8226 cell death", "setting": "RPMI8226 cells; 5 nM bortezomib alone", "result": 26, "unit": "%"}, {"measurement": "RPMI8226 cell death", "setting": "RPMI8226 cells; 10 nM bortezomib alone", "result": 66, "unit": "%"}, {"measurement": "complete and near complete responses", "setting": "[6]", "result": 10, "unit": "%"}, {"measurement": "patients who did not respond", "setting": "[6]", "result": 65, "unit": "%"}, {"measurement": "responses", "setting": "[6]", "result": 35, "unit": "%"}]}
{"smiles": "O=C(O)CCCCCCC(=O)Nc1ccc([C@H]2O[C@@H](CSc3nc(-c4ccccc4)c(-c4ccccc4)o3)C[C@@H](c3ccc(CO)cc3)O2)cc1", "note": "[niltubacin, reference compound]", "values": [{"measurement": "enhancement of cytotoxicity induced by bortezomib", "setting": "MM.1S cells [7]", "result": "does not affect either acetylation of α-tubulin (FIG. 4F) or enhance cytotoxicity"}, {"measurement": "acetylation of α-tubulin", "setting": "HDAC6 [8]", "result": "does not affect"}]}
{"smiles": "O=C1N[C@@H](Cc2ccccc2)C(=O)N2CCC[C@@H]2C(=O)N[C@@H](CCCCCC(=O)[C@@H]2CO2)C(=O)N[C@H]1Cc1ccccc1", "note": "[trapoxin] (cyclo(FF[dP][Aoe]))", "values": [{"measurement": "inhibition of HDAC6", "setting": "HDAC6 [2]", "result": "does not inhibit HDAC6"}]}
